Test results taken from US20030162818A1, “Acylsulfonamide derivative” (AJINOMOTO CO. INC., priority 1997, published 2003).

Assays:
[1] = molecular target: T1, acetyl-CoA carboxylase (ACC) (Rattus norvegicus, UniProt P11497); assay: Measurement of ACC inhibition activity (14C-bicarbonate incorporation, ACC purified from rat liver); format: biochemical; conditions: 5.6 × 10^−6 M compound; ACC purified from SD rat liver
T1 construct: subjected to decapitation and bloodletting under ether anesthesia to quickly take out the liver; from tissue; host or cells: rat liver (male SD rat, fasted then fed a high-sucrose feed)
Experimental: After 2 days of fasting, a male SD rat of 12 weeks of age was allowed to feed on a high sucrose feed (67% sucrose, 17.1% casein, 9.8% cellulose, 5% sodium chloride, 0.1% choline chloride and 1% vitamins) for 2 days and then subjected to decapitation and bloodletting under ether anesthesia to quickly take out the liver. The thus obtained liver was sliced in an ice-cooled buffer A (225 mM mannitol, 75 mM sucrose, 10 mM Tris/HCl (pH 7.5), 0.05 mM EDTA-2Na, 5 mM potassium citrate, 2.5 mM MnCl2, 10 mg/l aprotinin, 10 mg/l leupeptin and 10 mg/l antitrypsin) and then, after removal of moisture, adjusted to 5 ml/g by adding the buffer A and homogenized for 4 minutes using Polytron homogenizer. This was centrifuged for 10 minutes at 1,000 g and then the resulting supernatant was subjected to 10 minutes of high speed centrifugation at 17,000 g.
Ammonium sulfate was added to the thus obtained supernatant to a final concentration of 35%, and the mixture was stirred for 45 minutes and then subjected to 10 minutes of high speed centrifugation at 17,000 g. The thus obtained precipitate was mixed with 100 ml of a buffer B (100 mM Tris/HCl (pH 7.5), 0.5 M NaCl, 1 mM EDTA-2Na, 0.1 mM DTT, 10% glycerol, 10 mg/l aprotinin, 10 mg/l leupeptin and 10 mg/l antitrypsin) and subjected to 20 minutes of ultracentrifugation at 40,000, and the resulting supernatant was dialyzed overnight against 150 volumes of a buffer C (100 mM Tris/HCl (pH 7.5), 0.5 M NaCl, 1 mM EDTA-2Na, 0.1 mM DTT and 10% glycerol) and then filtered through a 5 μm filter. The filtrate was applied to a biotin affinity column, washed with the buffer B and then eluted with the buffer B supplemented with 5 mM biotin.
2. Measurement of ACC Inhibition Activity
Each of the compounds produced in the Examples was dissolved in DMSO, and the solution was put into a glass vial, mixed with 250 μl of an ACC-containing reagent 1 (40 mM Tris/HCl (pH 7.5), 40 mM MgCl2, 40 mM sodium citrate, 2 mM DTT and 100 μg/ml fatty acid-free BSA),incubated at 37° C. for 30 minutes in a thermostatic chamber, cooled with ice, mixed with 250 μl of a reagent 2 (40 mM Tris/HCl (pH 7.5), 2 mM DTT, 8 mM ATP and 0.5 mM acetyl-CoA) containing 74 kBq of NaH^14CO3, again incubated at 37° C. for 10 minutes in a thermostatic chamber and then mixed with 0.1 ml of 1 N HCl to terminate the reaction. After complete removal of moisture in the glass vial under a reduced pressure, an emulsified scintillator (Cleasol I) was added to the glass vial, and the ^14C radioactivity was measured using a liquid scintillation counter. […]
Inhibition activity ratio (%)=(1−radioactivity when a drug to be tested is added/radioactivity when the drug to be rested is not added)×100

[2] = system: HepG2 cells; assay: Measurement of intracellular fatty acid synthesis inhibition activity (FA biosynthesis from [14C]-glucose); format: cell-based; conditions: Homo sapiens, 3.0 × 10^−5 M compound, 3 hours culture with [14C]-glucose
Experimental: Measurement of Intracellular Fatty Acid Synthesis Inhibition Activity (FA Biosynthesis Inhibition Activity)
Each of the compounds produced in the Examples was dissolved in DMSO and added to an experimental culture medium (DMEM; 0.05 μg/ml insulin, 0.1 mg/ml glucose and 18.5 kBq/ml [^14C]-glucose). The HepG2 cells were adjusted to a density of 0.75×10^6 cells/ml, inoculated into a 12 well plate in an amount of 1 ml/well and cultured overnight at 37° C. in an atmosphere of 5% CO2 (culture medium: DMEM, […] and 10% FBS), and the resulting cells were washed twice with PBS(−) buffer, mixed with the experimental culture medium in an amount of 0.5 ml/well and then cultured at 37° C. for 3 hours in an atmosphere of 5% CO2. After the culturing, the cells were washed twice with ice-cooled PBS(−) buffer and peeled off, and lipids were extracted from the resulting cells with a lipid extraction solution (chloroform:methanol=2:1). The extract was mixed with 2.5 ml of ethanol and 0.1 ml of 33% potassium hydroxide and incubated at 70° C. for 1 hour. Lipids were again extracted from the reaction mixture, and the extract was applied to a silica gel thin layer plate. This was developed with a developing solution (hexane:diethyl ether:acetic acid=80:20:1) and then the fatty acid iodine-coloring part was collected to measure its radioactivity using a liquid scintillation counter. The inhibition activity % (3.0×10^−5 M) of each compound was calculated.

melting point [°C] | inhibition at 5.6 µM [1] [%] | SMILES | inhibition at 30 µM [2] [%]
114 to 117 | – | COc1ccc(COc2cccc(C(=O)Nc3ccccc3S(=O)(=O)NC(C)=O)c2)cc1 [Example 23, N-[2-[3-(4-methoxybenzyloxy)benzamido]benzenesulfonyl]acetamide] | –
133 to 134 | – | CCCCCC(=O)NS(=O)(=O)c1ccccc1NC(=O)c1cccc(OCc2ccccc2)c1 [Example 8, N-[2-(3-Benzyloxybenzamido)benzenesulfonyl]-n-hexanamide] | –
195 to 196 | – | CC(=O)NS(=O)(=O)c1ccccc1NC(=O)c1cccc(OCc2ccccc2)c1 [Example 3, N-[2-(3-Benzyloxybenzamido)benzenesulfonyl]acetamide] | –
177 to 178 | – | CCCCNC(=O)NS(=O)(=O)c1ccccc1NC(=O)c1cccc(OCc2ccccc2)c1 | –
189 to 190 | – | COc1ccc(C(=O)NS(=O)(=O)c2ccccc2NC(=O)c2cccc(OCc3ccccc3)c2)cc1 [Example 6, N-[2-(3-Benzyloxybenzamido)benzenesulfonyl]-4-methoxybenzamide] | –
163 to 164 | – | O=C(NS(=O)(=O)c1ccccc1NC(=O)c1cccc(OCc2ccccc2)c1)Oc1ccccc1 | –
193 to 194 | – | CC(C)(C)C(=O)NS(=O)(=O)c1ccccc1NC(=O)c1cccc(OCc2ccc(C(C)(C)C)cc2)c1 [Example 12, N-[2-[3-(4-t-Butylbenzyloxy)benzamido]benzenesulfonyl]pivalamide] | –
208 to 209 | – | O=C(Nc1ccccc1S(=O)(=O)NC(=O)c1ccc(F)cc1F)c1cccc(OCc2ccccc2)c1 [Example 11, N-[2-(3-Benzyloxybenzamido)benzenesulfonyl]-2,4-difluorobenzamide] | –
85 to 86 | 65 | CCCCCCCCCC(=O)NS(=O)(=O)c1ccccc1NC(=O)c1cccc(OCc2ccccc2)c1 [Example 9, N-[2-(3-Benzyloxybenzamido)benzenesulfonyl]decanamide] | 86.8
172 to 173 | – | O=C(Nc1ccccc1S(=O)(=O)NC(=O)c1cccc(OCc2ccccc2)c1)c1cccc(OCc2ccccc2)c1 [Example 1, N-[2-(3-Benzyloxybenzamido)benzenesulfonyl]-3-benzyloxybenzamide] | –
164 to 165 | – | CC(=O)NS(=O)(=O)c1ccccc1NC(=O)c1cccc(OCc2ccc(C(F)(F)F)cc2)c1 [Example 32, N-[2-[3-(4-Trifluoromethylbenzyloxy)benzamido]benzenesulfonyl]acetamide] | –
220 to 221 | – | O=C(Nc1ccccc1S(=O)(=O)NC(=O)c1ccc(C(F)(F)F)cc1)c1cccc(OCc2ccccc2)c1 [Example 4, N-[2-(3-Benzyloxybenzamido)benzenesulfonyl]-4-trifluoromethylbenzamide] | –
233 to 234 | – | O=C(Nc1ccccc1S(=O)(=O)NC(=O)c1ccc([N+](=O)[O-])cc1)c1cccc(OCc2ccccc2)c1 [Example 5, N-[2-(3-Benzyloxybenzamido)benzenesulfonyl]-4-nitrobenzamide] | –
190 to 191 | – | CC(=O)NS(=O)(=O)c1ccccc1NC(=O)c1cccc(OCc2ccc(C(C)(C)C)cc2)c1 [Example 29, N-[2-[3-(4-t-Butylbenzyloxy)benzamido]benzenesulfonyl]acetamide] | –

The next lines start with the compound.

SMILES | melting point [°C] | inhibition at 5.6 µM [1] [%] | inhibition at 30 µM [2] [%]
CCCCCCCOc1cccc(C(=O)Nc2ccccc2S(=O)(=O)NC(C)=O)c1 [Example 35, N-[2-(3-Heptyloxybenzamido)benzenesulfonyl]acetamide] | 194 to 195 | – | –
CC(C)(C)C(=O)NS(=O)(=O)c1ccccc1NC(=O)c1ccc(C#Cc2ccccc2)cc1 [Example 41, N-[2-(4-Phenylethynylbenzamido)benzenesulfonyl]pivalamide] | 236 to 237 | – | –
CCCCCCCCNC(=O)NS(=O)(=O)c1ccccc1NC(=O)c1cccc(OCc2ccccc2)c1 | 124 to 125 | – | –
CCCCCCCCCC(=O)NS(=O)(=O)c1ccccc1NC(=O)c1cccc(OCc2ccc(Cl)cc2)c1 [Example 19, N-[2-[3-(4-Chlorobenzyloxy)benzamido]benzenesulfonyl]decanamide] | 159 to 161 | 83.3 | 90.5
CCCCCC(=O)NS(=O)(=O)c1ccccc1NC(=O)c1cccc(OCc2ccc(OC)cc2)c1 [Example 24, N-[2-[3-(4-Methoxybenzyloxy)benzamido]benzenesulfonyl]hexanamide] | 154 to 157 | – | –
CC(C)=CC(=O)NS(=O)(=O)c1ccccc1NC(=O)c1ccc(C#Cc2ccccc2)cc1 [Example 42, 3-Methyl-N-[2-(4-phenylethynylbenzamido)benzenesulfonyl]-2-butenamide] | 187 to 188 | – | –
CCCCCCCCCC(=O)NS(=O)(=O)c1ccccc1NC(=O)c1ccc(C#Cc2ccccc2)cc1 [Example 40, N-[2-(4-Phenylethynylbenzamido)benzenesulfonyl]decanamide] | 155 to 156 | 76 | 57.4
CCCCCCCCCC(=O)NS(=O)(=O)c1ccccc1NC(=O)c1cccc(OCc2ccc([N+](=O)[O-])cc2)c1 [Example 22, N-[2-[3-(4-Nitrobenzyloxy)benzamido]benzenesulfonyl]decananide] | 145 to 148 | 88.4 | 95.2
CCCCCCCCCC(=O)NS(=O)(=O)c1ccccc1NC(=O)c1cccc(OCc2ccc(OC)cc2)c1 [Example 25, N-[2-[3-(4-methoxybenzyloxy)benzamido]benzenesulfonyl]decanamide] | 148 to 149 | 81.6 | 92
CCCCCC(=O)NS(=O)(=O)c1ccccc1NC(=O)c1cccc(OCc2ccc([N+](=O)[O-])cc2)c1 [Example 21, N-[2-[3-(4-Nitrobenzyloxy)benzamido]benzenesulfonyl]hexanamide] | 138 to 141 | – | –
CCCCCC(=O)NS(=O)(=O)c1ccccc1NC(=O)c1cccc(OCc2ccc(Cl)cc2)c1 [Example 18, N-[2-[3-(4-Chlorobenzyloxy)benzamido]benzenesulfonyl]hexanamide] | 148 to 149 | – | –
CCCCCCCOc1cccc(C(=O)Nc2ccccc2S(=O)(=O)NC(=O)CCCCC)c1 [Example 36, N-[2-(3-Heptyloxybenzamido)benzenesulfonyl]hexanamide] | 200 to 201 | – | –
CCCCCC(=O)NS(=O)(=O)c1ccccc1NC(=O)c1cccc(OCC2CCCCC2)c1 [Example 27, N-[2-(3-Cyclohexylmethoxybenzamido)benzenesulfonyl]hexanamide] | 112 to 113 | – | –
CCCCC/C=C\C/C=C\CCCCCCCC(=O)NS(=O)(=O)c1ccccc1NC(=O)c1cccc(OCc2ccccc2)c1 [Example 15, N-[2-(3-Benzyloxybenzamido)benzenesulfonyl]linolamide] | – | 84.8 | 30.6
CC(=O)NS(=O)(=O)c1ccccc1NC(=O)c1ccc(C#Cc2ccccc2)cc1 [Example 38, N-[2-(4-Phenylethynylbenzamido)benzenesulfonyl]acetamide] | 214 to 215 | – | –
